Among the data in patent publication US20070016970A1, “Guinea pig-chymase” (priority 2005, published 2007) are IC50 values, retold here.

Experiment [1] deals with T1, Human Chymase coli (Homo sapiens, UniProt P23946).
T1 construct: Chymase purified from human skin mast cells was obtained from Calbiochem; purchased Calbiochem (Merck Biosciences, San Diego, Calif., USA); host or cells: human skin mast cells
T1 sequence (P23946 22-247): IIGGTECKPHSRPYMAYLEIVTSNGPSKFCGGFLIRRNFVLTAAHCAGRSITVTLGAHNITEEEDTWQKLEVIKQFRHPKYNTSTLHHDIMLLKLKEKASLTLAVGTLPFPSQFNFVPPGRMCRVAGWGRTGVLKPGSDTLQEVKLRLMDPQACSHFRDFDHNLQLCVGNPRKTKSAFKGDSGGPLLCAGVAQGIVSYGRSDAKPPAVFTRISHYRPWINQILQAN
Description: Assay for chymase inhibition (fluorogenic AAPF-AMC substrate), human chymase. It is filed as biochemical. Here is the method:
The peptide was synthesized with a purity of 95% from Bachem, Bubendorf, Switzerland). Chymase purified from human skin mast cells was obtained from Calbiochem (Merck Biosciences, San Diego, Calif., USA). The assay buffer was 0.15 M NaCl, 0.05M, Tris HCl, 0.05% CHAPS, 0.1 mg/ml Heparin (Heparin sodium, Sigma, porcine intestinal mucosa), 0.02mM AAPF-substrate, 1 nM Chymase at pH 7.4. The assay was performed in 96-well plates (Packard Optiplate), with a 0.05 ml volume at room temperature. Chymase activity was indicated by the initial rate of increase in fluorescence at 340/440 nm (excitation/emission) from free 7-amino-4-methylcoumarin released from the substrate. Inhibition of the activity by inhibitory compounds was read after 30 min pre-incubation with the chymase at room temperature in assay buffer without AAPF-substrate. The assay was then started by addition of the indicated concentration of AAPF-substrate.

For experiment [2], the target named is T2, guinea pig chymase (Cavia porcellus, UniProt A7WPL7, G52S).
T2 construct: Thereby the mature guinea pig chymase with the correct N-terminus was formed; 26-amino acid N-terminal polypeptide with 6xHis tag and enterokinase cleavage site (N, cleaved yes); made in house
T2 sequence (A7WPL7 22-247 G52S): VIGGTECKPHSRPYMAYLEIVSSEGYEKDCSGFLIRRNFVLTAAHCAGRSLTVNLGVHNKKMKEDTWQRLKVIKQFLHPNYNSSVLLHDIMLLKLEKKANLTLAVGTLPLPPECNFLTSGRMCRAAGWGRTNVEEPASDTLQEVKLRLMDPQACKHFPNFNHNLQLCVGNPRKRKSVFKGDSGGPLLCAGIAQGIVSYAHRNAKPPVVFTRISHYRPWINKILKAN
Description: Assay for chymase inhibition (fluorogenic AAPF-AMC substrate), guinea pig chymase. The settings on record: recombinant guinea pig chymase; 0.02 mM AAPF-substrate, 1 nM chymase, pH 7.4, 30 min pre-incubation, room temperature; read-out: Inhibition of guinea pig chymase activity, IC50, GP chymase. It is filed as biochemical.

Like-named read-outs stand apart in the source and are kept apart here.

The IC50 is the concentration at which inhibition is half-maximal. In the case of `CC(=O)NCCc1c(C(c2ccccc2)c2c(O)c3ccccc3n(C)c2=O)[nH]c2ccccc12` (stereo not shown) [SF2809-V, N-(2-{2-[(4-Hydroxy-1-methyl-2-oxo-1,2-dihydro-quinolin-3-yl)-phenyl-methyl]-1H-indol-3-yl}-ethyl)-acetamide], the IC50 in experiment [1] (human chymase, 0.02 mM AAPF-substrate, 1 nM chymase, pH 7.4, 30 min pre-incubation, room temperature, read-out: Inhibition of chymase activity, IC50, Human Chymase coli) is 570 nM; in experiment [2], 940 nM.

For the molecule `COC(=O)c1ccc(NS(=O)(=O)c2sc3ccc(F)cc3c2C)c(S(C)(=O)=O)c1` [TY-51076, 4-(5-Fluoro-3-methyl-benzothiophene-2-sulfonylamino)-3-methanesulfonyl-benzoic acid methyl ester], the IC50 in experiment [1] came out at 590 nM; in experiment [2], 345 nM.
